Data: publication doi:10.1101/2023.03.24.534094v2 (biorxiv, 2023)

Key:
Assay in all cases: biochemical
[1] = target: T1, MST1 (Homo sapiens, UniProt Q13043)
T1 sequence (Q13043 1-487): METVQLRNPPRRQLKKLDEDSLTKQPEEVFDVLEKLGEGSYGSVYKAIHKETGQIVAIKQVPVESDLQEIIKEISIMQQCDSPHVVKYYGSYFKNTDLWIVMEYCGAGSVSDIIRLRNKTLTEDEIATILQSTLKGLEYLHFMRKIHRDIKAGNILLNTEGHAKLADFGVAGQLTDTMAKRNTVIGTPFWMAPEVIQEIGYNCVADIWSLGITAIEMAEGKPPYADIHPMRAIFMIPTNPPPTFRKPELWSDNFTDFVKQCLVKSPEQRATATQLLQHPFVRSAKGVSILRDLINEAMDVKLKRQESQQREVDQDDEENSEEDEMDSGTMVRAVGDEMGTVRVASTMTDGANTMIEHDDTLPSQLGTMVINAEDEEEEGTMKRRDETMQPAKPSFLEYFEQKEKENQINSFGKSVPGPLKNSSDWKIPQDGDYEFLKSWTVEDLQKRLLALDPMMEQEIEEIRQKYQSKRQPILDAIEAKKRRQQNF

[2] = target: T2, MST2 (Homo sapiens, UniProt Q13188); conditions: 10 µM; binder
T2 sequence (Q13188 1-491): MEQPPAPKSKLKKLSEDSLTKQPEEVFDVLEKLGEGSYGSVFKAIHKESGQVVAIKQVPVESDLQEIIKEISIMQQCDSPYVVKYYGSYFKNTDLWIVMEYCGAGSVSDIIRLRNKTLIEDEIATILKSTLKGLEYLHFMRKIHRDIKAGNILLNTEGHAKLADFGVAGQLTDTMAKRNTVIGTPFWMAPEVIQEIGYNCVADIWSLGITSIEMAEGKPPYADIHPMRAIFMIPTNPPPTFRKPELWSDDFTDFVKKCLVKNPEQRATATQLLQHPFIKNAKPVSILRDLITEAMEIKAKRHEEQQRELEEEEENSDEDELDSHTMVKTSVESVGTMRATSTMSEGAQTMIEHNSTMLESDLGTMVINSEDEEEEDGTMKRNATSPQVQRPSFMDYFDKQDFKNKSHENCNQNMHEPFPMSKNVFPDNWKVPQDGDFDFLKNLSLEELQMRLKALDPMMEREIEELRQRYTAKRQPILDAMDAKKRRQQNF

[3] = target: MST4 (Homo sapiens, UniProt Q9P289); conditions: 10 µM; binder
Chain of MST4 (Q9P289 whole entry): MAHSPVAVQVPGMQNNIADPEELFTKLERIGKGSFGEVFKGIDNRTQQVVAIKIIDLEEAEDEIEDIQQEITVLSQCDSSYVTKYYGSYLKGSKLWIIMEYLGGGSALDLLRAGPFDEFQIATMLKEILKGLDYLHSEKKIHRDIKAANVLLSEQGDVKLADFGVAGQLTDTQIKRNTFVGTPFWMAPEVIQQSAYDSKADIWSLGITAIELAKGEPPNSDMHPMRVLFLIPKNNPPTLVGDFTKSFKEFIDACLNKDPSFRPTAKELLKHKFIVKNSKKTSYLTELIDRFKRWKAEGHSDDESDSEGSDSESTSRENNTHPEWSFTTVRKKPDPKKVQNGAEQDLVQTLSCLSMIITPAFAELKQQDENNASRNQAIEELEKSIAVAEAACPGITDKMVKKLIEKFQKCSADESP

SMILES | ΔTm at 10 µM ([1]; read-out: dTm MST1) | dTm MST2 [2] | dTm MST1 ([1]; 10 µM, binder) | dTm MST4 [3]
CN[C@@H]1C[C@H]2O[C@@](C)([C@@H]1OC)n1c3ccccc3c3c4c(c5c6ccccc6n2c5c31)C(=O)NC4 [Staurosporine] | 13.9 °C |  |  | 
CNc1ncc2cc(-c3ccc(-c4ncccc4F)cc3Cl)c(=O)n(C[C@H]3OC[C@H](N)CO3)c2n1 [compound 1, MRIA9] |  | 2.5 °C | 1.8 °C | 2.7 °C
